# Results published in patent US11759438B2, “Compositions and methods for treating ocular pathologies” (priority 2017, dated 2023).
# Like-named read-outs stand apart in the source and are kept apart here.
# Legend:
# [1] = tested on: Herpes Simplex Virus type 1 (HSV-1) RE strain; assay: Herpes stromal keratitis model, BALB/c mice, topical eye drops, clinical scoring and histology; format: in vivo; conditions: for animal body weight: HSV-1 infected mice, relative to BSS controls; for HSV-induced pathological vascularization of the eye: mouse models of herpetic keratitis, ophthalmic formulation
# Protocol: DOI drops were topically applied for 7 days post infection and chronic disease was assessed up to day 15.
# There is a complete absence of inflammatory or red blood cells and no vascularization of corneal tissue. 2nd row panels: HSV infection and long-term inflammatory responses induces disruption of the epithelial layer, thickening of the stroma, and identifiable vascularization of corneal tissue (yellow arrows) with extensive presence of immune infiltrates.
# 16 BALB/c mice were randomly sorted into 3 treatment arms: 1) Ophthalmic Balanced Saline Solution diluted 1:1 in PBS (BSS+PBS) treated (6 mice); 2) DOI treated (XTPFDOI) (5 mice); 3) 1.0% TFT (TFT+PBS) (5 mice). Animals were anesthetized with […]:ketamine and both eyes were scarified in a cross hatch pattern using a curved needle. Immediately following ocular scarification, eyes were inoculated with a 3 microliter drop containing 10,000 plaque forming units (PFU) of Herpes Simplex Virus type 1 (HSV-1) RE strain. The next morning following infection, animals were treated with the respective treatment as assigned within their treatment arm. Treatments were applied topically to the eye in a 4 microliter drop. Drops were applied 4 time per day from 9:00 am to 5:30 pm, starting immediately following clinical scoring. Treatments were applied for the first 8 days post infection and then stopped. Clinical scoring was done using a slit lamp biomicroscope magnified at 16× on the days indicated by a single individual masked to the drug treatment parameters. Slit lamp biomicroscopy also included fluorescein exclusion labeling of the corneal surface following scoring of all clinical parameters. Each eye was scored independently. Animal deaths were recorded if euthanasia was required due to severe encephalitis or if animals died from HSV-associated disease. Clinically clear eyes were scored as such if no apparent signs of disease were present in any clinical parameter during the chronic phase.
# At day 15 post infection, a stage that would be during chronic immune-associated disease with no virus present, animals were euthanized and the eyes were removed for histology. Random representative eyes were prepared by taking sections through the central cornea and processed by H&E histology for visualization. Sections were examined microscopically and photographed across the central cornea.
# [2] = tested on: HSV-1; design: species or system mice; conditions: 500 nM; for HSV-1 reactivation from latency (in words): ex vivo TG explants
# [3] = tested on: aortic rings; assay: Aortic ring assay (VEGF-mediated neovascularization); design: species or system mice
# Protocol: FIG. 13 is a series of photographs showing VEGF-mediated neovascularization from aortic rings in the presence of R-DOI, TCB2, and 4F4PP.
# These aortic rings are implanted into matrigel basement membrane and incubated in endothelial cell growth medium containing vascular endothelial growth factor. Aortic rings are continuously incubated in the presence of 5-HT2A receptor agonists and antagonists at the indicated concentrations and examined by microscopy daily. Extensive sprouting, branching and networking of new blood vessels can be observed in control aortic rings, where multiple images needed to be stitched together in order to capture the extensive blood vessel network formed.
# [4] = tested on: healthy retinal pigment epithelial cells (APRE); assay: Cytotoxicity by lysis, healthy retinal cells; format: cell-based; conditions: highest dose tested
# Protocol: (§1) FIG. 17 is a series of graphs showing the effect of R-DOI dose on cytotoxicity of healthy retinal pigment epithelial cells (APRE) and cancerous retinoblastoma cells (Y-79) at 24 hours (top), 48 hours (middle), and 72 hours (bottom).
# (§2) Healthy (APRE) and cancerous (Y-79) retinal cell lines were treated with varying doses of R-DOI and monitored for cytotoxicity by lysis at 24 hour intervals.
# [5] = tested on: cancerous retinoblastoma cells (Y-79); assay: Cytotoxicity by lysis, retinoblastoma cells; format: cell-based; conditions: varying doses
# Protocol: as §1, §2
# [6] = tested on: human microvascular endothelial cells (HMEC) spheroids; assay: Spheroid tubule growth assay; format: cell-based; conditions: matrigel with VEGF; serotonin 50 nM, R-DOI 100 nM, TCB2 500 nM
# Protocol: FIG. 16 is a series of fluorescent micrographs showing the effect of 5HT2A receptor agonists on vascular tubule growth from tissue-like spheroids.
# HMEC cells were cultured in specially coated U-shaped bottom 96 well plates in order to form tissue-like three-dimension spheroids. Spheroids were subsequently implanted into wells that contained matrigel basement membranes supplemented with vascular endothelial growth factor (VEGF) or starved (Starvation control-no VEGF). Culture media was treated with either serotonin (50 nM), (R-DOI (100 nM), or TCB2 (500 nM) outgrowth from the spheroids of vascular-like structures was monitored microscopically.
# [7] = tested on: Herpes Simplex Virus type 1 (HSV-1) RE strain; assay: Herpes stromal keratitis model, C57bl/6 mice, topical eye drops; format: in vivo
# [8] = tested on: VEGF-mediated corneal vascularization; assay: VEGF-mediated ocular vascularization model, topical DOI; format: in vivo, rabbit; conditions: eyes treated with DOI
# Protocol: A rabbit corneal micropocket assay is used to assess the ability of topically administered DOI to prevent VEGF-mediated corneal vascularization. VEGF or saline control slow release micropellets are generated as described previously. A corneal micropocket is created in each rabbit eye 3.0 mm from the corneal limbus, and micropellets are implanted. Starting the day after implant, paired OD and OS eyes are treated four times daily with either control (OD eyes) or DOI (OS eyes) drops, respectively. The utilization of sister eyes for topical drug evaluation controls for animal-to-animal variability. Eyes are clinically assessed daily and imaged by slit lamp biomicroscopy as described in all other ocular studies herein.
# VEGF-induced vascularization and vessel permeability can lead to corneal edema, inflammation, and ocular clouding. Therefore, a panel of clinical parameters (described herein) is assessed daily by fluorescent slit-lamp biomicroscopy to ascertain the therapeutic effects of topical DOI treatment on vascularization-mediated eye disease.
# VEGF is a known mediator of vascular permeability and we have observed in this model system that edema and chemosis is common, irrespective of the extent of vascularization induced. […]
# [9] = relative to BSS controls and TFT controls, by day 12 post-infection
structure (smiles),measurement,setting,value
"O=c1[nH]c(=O)n([C@H]2C[C@H](O)[C@@H](CO)O2)cc1C(F)(F)F [TFT, trifluorothymidine, reference compound]",HSV replication,[1]; 1% TFT,complete inhibition of HSV replication
same,animal body weight,[1],did not change body weight relative to BSS controls
"COc1cc(C[C@@H](C)N)c(OC)cc1I [R-DOI, R-2,5-Dimethoxy-4-iodoamphetamine]",HSV-induced pathological vascularization of the eye,[1],suppressed HSV-induced pathological vascularization of the eye
same,HSV-induced pathological vascularization of the eye,[1]; listed as (R)-DOI,demonstrated anti-vascularization properties
same,HSV-1 reactivation from latency (in words),[2],inhibits HSV-1 reactivation from latent neurons
same,HSV-1 reactivation from latency (in words),[2]; listed as (R)-DOI,inhibited HSV-1 reactivation from latency
same,"inhibitory effects for neovascularization, sprouting, branching, and networking",[3]; 10 nM concentration,began to no longer be as effective
same,"blood vessel sprouting, branching and formation","[3]; VEGF-containing endothelial growth medium, matrigel","inhibited blood vessel sprouting, branching and formation"
same,cytotoxicity by lysis,[4],modest cytotoxicity
same,cytotoxicity by lysis,"[5]; Y-79, 24 hours","strong, dose-dependent toxicity"
same,cytotoxicity by lysis,"[5]; Y-79, 48 hours",killing effect was saturated at all doses
"NCCc1c[nH]c2ccc(O)cc12 [Serotonin, 5 hydroxytryptamine, reference compound]",vascular-like tubular growth from HMEC spheroids,[6],induced vascularization-like replication and tubule growth
"COc1cc(CC(C)N)c(OC)cc1I (stereo not drawn) [DOI, 1-(4-Iodo-2,5-dimethoxyphenyl)propan-2-amine]",clinical scores (three metrics),"[7]; compared to BSS control, by day 16 post-infection",even greater improvement in each metric
same,"clinical scores (slit-lamp biomicroscopy, stromal opacity/inflammation, corneal neovascularization)","[7]; relative to BSS controls, by day 12 post-infection, 4 μl/eye 4x daily for 8 days",decreased score in all three metrics
same,animal body weight,[1],retained
same,eyes exhibiting complete clinical resolution,[1]; by day 15,60%
same,histopathology of the eye (cornea),[1]; day 15 post infection,normal ocular morphology with an absence of clinical signs of ocular disease
same,development of all clinically scored parameters,"[1]; drops for 7 days post infection, chronic disease assessed up to day 15",suppressed development of all clinically scored parameters
same,control of acute and chronic vision-threatening disease compared to TFT,[1]; herpetic eye disease model,superior at controlling both acute and chronic vision-threatening disease
same,neovascularization score,[1]; [9],decreased
same,slit lamp score,[1]; [9],decreased
same,stroma capacity score,[1]; [9],decreased
same,vascular-like tubular growth from HMEC spheroids,[6],abrogated formation of vascular-like tubular growth
same,ganglia positive for infectious HSV-1 (number/total),[2]; day 1 post-explant,0/7
same,percentage positive for infectious HSV-1,[2]; day 1 post-explant,(0%)
same,ganglia positive for infectious HSV-1 (number/total),[2]; day 2 post-explant,0/7
same,percentage positive for infectious HSV-1,[2]; day 2 post-explant,(0%)
same,ganglia positive for infectious HSV-1 (number/total),[2]; day 3 post-explant,0/7
same,percentage positive for infectious HSV-1,[2]; day 3 post-explant,(0%)
same,ganglia positive for infectious HSV-1 (number/total),[2]; day 4 post-explant,0/7
same,percentage positive for infectious HSV-1,[2]; day 4 post-explant,(0%)
same,ganglia positive for infectious HSV-1 (number/total),[2]; day 5 post-explant,0/7
same,percentage positive for infectious HSV-1,[2]; day 5 post-explant,(0%)
same,ganglia positive for infectious HSV-1 (number/total),[2]; day 6 post-explant,0/7
same,percentage positive for infectious HSV-1,[2]; day 6 post-explant,(0%)
same,ganglia positive for infectious HSV-1 (number/total),[2]; day 7 post-explant,0/7
same,percentage positive for infectious HSV-1,[2]; day 7 post-explant,(0%)
same,ganglia positive for infectious HSV-1 (number/total),[2]; day 8 post-explant,1/7
same,percentage positive for infectious HSV-1,[2]; day 8 post-explant,(14.3%)
same,ganglia positive for infectious HSV-1 (number/total),[2]; day 9 post-explant,1/7
same,percentage positive for infectious HSV-1,[2]; day 9 post-explant,(14.3%)
same,ganglia positive for infectious HSV-1 (number/total),[2]; day 10 post-explant,2/7
same,percentage positive for infectious HSV-1,[2]; day 10 post-explant,(28.6%)
same,delay in reactivation of HSV-1 from TGs,[2]; relative to mock,2 fold
same,degree of reactivation and amount of infectious virus shed from latent neurons (PFU/ml/TG; PFU/ml/positive TG),[2]; relative to mock treated neurons,significantly inhibited the degree of reactivation and amount of infectious virus shed from latent neurons
same,HSV-1 reactivation from latency (in words),[2],maintains latency of HSV-1 within reactivation induced neurons
same,clinical presentation of edema and chemosis,[8],greatly reduced
same,vascularization of the eye,[8],resolution of vascularization
